Measurements as given in publication PMC4502315, “High Potency of a Novel Resveratrol Derivative, 3,3′,4,4′-Tetrahydroxy-trans-stilbene, against Ovarian Cancer Is Associated with an Oxidative Stress-Mediated Imbalance between DNA Damage Accumulation and Repair” (Oxidative Medicine and Cellular Longevity, 2015).

Columns and labels:
HOSE cells = assay: MTT viability assay, HOSE cells; assay type: cell-based, human; conditions: 24 h; for IC50: Homo sapiens, CalcuSyn; for concentration up to which viability was unchanged: cytotoxicity tests (MTT and LDH release)
Protocol: (§1) Cell viability was assessed with the MTT test and with lactate dehydrogenase (LDH) release assay. As per the MTT method, normal and cancer cells were seeded into 96-well plates at high density and allowed to attach overnight. Then they were incubated in a medium containing 1.25 mg/mL of the MTT salt [3-(4,5-dimethylthiazol-2-yl)-2,5-diphenyltetrazolium bromide] for 24 h at 37°C. The generated formazan was solubilized with 20% sodium dodecyl sulphate and 50% N,N-dimethylformamide. Absorbance of the converted dye was recorded at 595 nm with a reference wavelength of 690 nm.
(§2) In order to examine the effect of 3,3′,4,4′-THS on the viability of ovarian cancer cells and to compare its activity with RVT, subconfluent cultures of A2780, OVCAR-3, and SKOV-3 cells were subjected to a wide range of stilbene concentrations (0–500 μM) for 24 h; then MTT and LDH release assays were performed.

HPMCs [1] = assay: MTT viability assay, HPMCs; assay type: cell-based, human; conditions: 24 h; for IC50: Homo sapiens, CalcuSyn; for concentration up to which viability was maintained: cytotoxicity tests (MTT and LDH release)
Protocol: as §1, §2

A2780 = assay: LDH release assay, A2780; assay type: cell-based; conditions: Homo sapiens, 24 h; for IC50: CalcuSyn
Protocol: As per LDH release, the measurements were performed using the commercially available Pierce LDH Cytotoxicity Assay Kit (Pierce Biotechnology, Rockford, IL, USA). In this assay, cells with damaged plasma membranes release LDH into the culture environment; then the enzyme catalyses the conversion of lactate to pyruvate, which is accompanied by a reduction of NAD^+ to NADH. Afterwards, diaphorase uses NADH to reduce a tetrazolium salt to a formazan whose level is proportional to LDH activity. The absorbance emitted by the formazan was monitored at 490 nm with a reference wavelength of 680 nm.
as §2

HPMCs [2] = assay: LDH release assay, HPMCs; assay type: cell-based, human; conditions: Homo sapiens, 24 h, CalcuSyn
[3] = test system: superoxide dismutase (SOD); assay: SOD activity in cell lysates, A2780; assay type: cell-based, human; conditions: 24 h, 10, 50, 100 μM tested
Protocol: Total activity of superoxide dismutase (SOD) was measured in cell lysates with a commercially available kit (R&D Systems Europe, Abingdon, UK), while the activity of catalase (CAT) was estimated by using the OxiSelect Catalase Activity Assay Kit (Cell Biolabs Inc., San Diego, CA, USA). Both assays were performed according to the manufacturer's instructions.

SKOV-3 cells [4] = assay: Oxidative DNA damage (8-OH-dG immunoassay), SKOV-3; assay type: cell-based, human; conditions: 24 h, 10, 50, 100 μM tested
Protocol: Oxidative DNA damage was assessed by measuring the 8-OH-dG concentration with a competitive immunoassay (Cell Biolabs Inc.), as per manufacturer's instructions. The efficiency of 8-OH-dG repair was estimated after cell recovery for 24 h in standard growth medium. In order to examine the activity of DNA glycosylase I, reverse transcription PCR was performed. RNA extraction was carried out using the RNA Bee (Tel-Test, Friendswood, Texas, USA) and purified according to the manufacturer's protocol. One microgram of RNA was reverse transcribed into cDNA with random hexamer primers, and cDNA was subjected to PCR. The profile of the replication cycles was denaturation at 94°C for 50 s, annealing at 58°C for 50 s, and polymerization at 72°C for 1 min. In each reaction, the expression of glyceraldehyde-3-phosphate dehydrogenase (GAPDH) served as the internal control. The primers used for PCR were as follows: hOGG1 forward, 5′-[…]-3′; hOGG1 reverse, 5′-TAGCCCGCCCTGTTCTTC-3′ designed to amplify a 551-bp region; GAPDH forward, 5′-CCATGGAGAAGGCTGGGG-3′; and GAPDH reverse 5′-[…]-3′ designed to amplify a 194-bp region (total number of cycles: 28). The PCR products were separated on 3% agarose gels stained with ethidium bromide and then visualized.

OVCAR-3 cells = assay: Apoptosis (Hoechst 33258), OVCAR-3; assay type: cell-based, human; conditions: 24 h, 10, 50, 100 μM tested
Protocol: (§3) Identification of apoptosis was based on the presence of DNA condensation in cells stained with a fluorescent dye, Hoechst 33258 (Molecular Probes, Eugene, OR). Cells were grown on Lab-Tek Chamber Slides (Nunc, Roskilde, Denmark), fixed with 4% formaldehyde for 10 min and washed twice with PBS. Then the cells were incubated with Hoechst 33258 (0.1 μg/mL) for 5 min in the dark. After washing with PBS, stained nuclei were observed and counted under a Zeiss Axio Observer D1 fluorescence microscope (Carl Zeiss, Jena, Germany). The activity of caspases 3, 8, and 9 was quantified in the cell lysates using specific colorimetric kits (Abcam, Cambridge, UK) according to the manufacturer's instructions.

SKOV-3 cells [5] = assay: Cell proliferation (CFDA SE), SKOV-3; assay type: cell-based, human; conditions: low-density cultures, 24 h, 10, 50, 100 μM tested
Protocol: Cell proliferative potential was determined using Cell Proliferation Kit I (PromoKine, Heidelberg, Germany) according to the manufacturer's instructions. In brief, cells were probed for 15 min with 5-(and 6)-carboxyfluorescein diacetate, a succinimidyl ester (CFDA SE; 2 μM) which diffuses into cells, covalently binds to proteins, and becomes fluorescent upon its hydrolysis by intracellular esterases. The fluorescence emitted by the cells (the dye is inherited by the daughter cells through successive divisions) was recorded using a Victor2 spectrofluorometer (Perkin-Elmer, Turku, Finland) with excitation at 435 nm and emission at 535 nm.

A2780 cells = assay: SA-β-Gal activity (senescence), A2780; assay type: cell-based, human; conditions: 24 h, 10, 50, 100 μM tested
Protocol: The activity of SA-β-Gal in the cell extracts was quantified by measuring the rate of conversion of 4-methylumbelliferyl-β-D-galactopyranoside to 4-methylumbelliferone, as described in [19]. In order to visualize expression of the enzyme in the cancer cell cytoplasm, cytochemical staining for SA-β-Gal was performed according to Dimri et al..

p38 MAPK [6] = assay: p38 MAPK activation (FACE ELISA), HOSE cells; assay type: cell-based, human; conditions: 24 h, percentage of control cells
Protocol: (§4) Activation of p38 MAPK was examined using the Fast Activated Cell-Based ELISA (FACE) p38 kit (Active Motif) according to the manufacturer's instructions. In brief, cells were fixed with 4% formaldehyde and incubated with a primary antibody that recognizes either phosphorylated p38 or total p38 overnight at 4°C. Then the cells were washed and incubated with a secondary HRP-conjugated antibody for 1 h at room temperature. The color reaction that developed was read using a spectrofluorometer at 450 nm wavelength.
(§5) The results were expressed as a ratio of phosphorylated to total p38 activity.

p38 MAPK [7] = assay: p38 MAPK activation (FACE ELISA), HPMCs; assay type: cell-based, human; conditions: 24 h, percentage of control cells
Protocol: as §4, §5

caspase-9 = assay: Caspase-9 activity in ovarian cancer cell lysates; assay type: cell-based, human; conditions: ovarian cancer cells (A2780, OVCAR-3, SKOV-3); 24 h
Protocol: as §3

caspase-8 = assay: Caspase-8 activity in ovarian cancer cell lysates; assay type: cell-based, human; conditions: ovarian cancer cells (A2780, OVCAR-3, SKOV-3); 24 h
Protocol: as §3

IC50 (A2780)	IC50 (HPMCs [2])	SMILES	IC50 (HOSE cells)	concentration up to which viability was unchanged (HOSE cells)	IC50 (HPMCs [1])	concentration up to which viability was maintained (HPMCs [1])	SOD activity, effect in words [3]	concentration of 8-OH-dG (oxidative DNA damage), effect in words (SKOV-3 cells [4])	incidence of apoptosis (rise in percentage of death cells), effect in words (OVCAR-3 cells)	proliferation, effect in words (SKOV-3 cells [5])	SA-β-Gal activity (senescence), effect in words (A2780 cells)	p38 MAPK (p38 MAPK [6]; 10 μM)	p38 MAPK (p38 MAPK [6]; 50 μM)	p38 MAPK (p38 MAPK [6]; 100 μM)	p38 MAPK (p38 MAPK [7]; 10 μM)	p38 MAPK (p38 MAPK [7]; 50 μM)	p38 MAPK (p38 MAPK [7]; 100 μM)	caspase-9 activity, effect in words (caspase-9)	caspase-8 activation, effect in words (caspase-8)	further results
6 µM	498 µM	Oc1ccc(/C=C/c2ccc(O)c(O)c2)cc1O [3,3′,4,4′-THS, 3,3′,4,4′-tetrahydroxy-trans-stilbene]	502 µM	≤ 400 µM	496 µM	up to 300 μM	increased SOD at 10 μM and decreased the activity of the enzyme at 50 and 100 μM	increasing the concentration of 8-OH-dG in the OVCAR-3 and SKOV-3 cells starting from a dose of 10 μM	evident starting from the lowest concentration of 10 μM	evident at as low a concentration as 10 μM	increased SA-β-Gal at each dose, reaching the highest activity at as low a dose as 10 μM	106 ± 5%	104 ± 4%	100 ± 3%	82 ± 3^∗# %	81 ± 6^∗# %	104 ± 2%	increased the activity of the same caspases as RVT did	lack of activation of caspase-8	viability at 10 µM (A2780; 10 μM, percentage of control cells): 42 ± 3%; viability at 50 µM (A2780; 50 μM, percentage of control cells): 26 ± 3%; viability at 100 µM (A2780; 100 μM, percentage of control cells): 22 ± 3%
65 µM	495 µM	Oc1ccc(/C=C/c2cc(O)cc(O)c2)cc1 [RVT, 3,4′,5-trihydroxy-trans-stilbene, reference compound]	485 µM	≤ 400 µM	465 µM	up to 300 μM	upregulated activity of the enzyme	induced DNA injury in A2780 and SKOV-3 at 50 and 100 μM	at 100 μM for the OVCAR-3 cells	such a low dose was effective in SKOV-3 cultures only	did not change	103 ± 5%	107 ± 10%	108 ± 11%	113 ± 16%	103 ± 2%	105 ± 7%	activated caspases 9 and 3, and this activity was evident at 50 and 100 μM	no effect	
